# Test results as given in patent EP3358006A1, “METHOD AND MEDIUM FOR CULTIVATING PRIMARY CELLS IN VITRO” (Mares Ltd., priority 2017, dated 2018).
# Where two headings read alike, the source gives them in different places.
# Experiments:
# Format in all cases: cell-based, human
# hMSCs [1] = assay: Chondrocyte differentiation, collagen accumulation by Sirius red/fast green staining; details: for activation at 5000 µM: Homo sapiens, Chondrocyte, 504 h, read-out: % increase over controls (chondrocyte differentiation); for Absorbance at 540nm, Chondrocyte-differentiated cells: 21 days; for Absorbance at 540nm, Control cells: no differentiation protocol
# Protocol: (§1) Cells at passage 6 were seeded at a density of 2x10^5 (adipogenesis and chondrogenesis) or 3x10^4 (osteogenesis) into wells of a 6 well tissue culture plate. Kits for differentiation along adipogenic, chondrocytic and osteocytic lineages were obtained from Lonza and accompanying protocols followed. Early stage characteristics of differentiation were then assessed. Adipocytes were assayed for fat accumulation after 18 days from the onset of the differentiation protocol. Cells were fixed by incubating for 10 minutes in 10% formalin, followed by 60 minutes in fresh 10% formalin and washing with 60% isopropanol. 5mM Oil red O in 60% isopropanol (filtered), 1ml per well, was added to dry wells and left for 10 minutes before washing four times with water. Oil red O was eluted with 1ml 100% isopropanol per well and the optical density measured at 500nm. Chondrocytes were assayed for collagen accumulation (after 21 days from the onset of the differentiation protocol) using Sirius red/fast green collagen staining kit purchased from Amsbio. Osteocytes were assayed for calcium accumulation (21 days after the onset of the differentiation protocol) by the method of Jager et al, 2005. In each case, values were compared with those of control cells which had been cultured under normal growth conditions without being exposed to differentiation protocols.
# Cells were inoculated at a density of 2x10^5 cells/well into 6 well plates and the chondrocyte-differentiation protocol followed (refer to Experimental Procedures for full protocol). After 21 days, cells were fixed with Kahle fixative and stained with Sirius dye. Dye was extracted and the absorbance read at 540nm. n=3 ** p<0.004; *** p<0.0001
# hMSCs [2] = assay: Osteocyte differentiation, Ca2+ accumulation by cresopthalein; details: for Absorbance at 577nm, Osteocyte-differentiated cells: 21 days; for Absorbance at 577nm, Control cells: no differentiation protocol
# Protocol: as §1
# Cells were inoculated at a density of 3x10^4 cells/well into 6 well plates and the osteocyte differentiation protocol followed (refer to Experimental Procedures for full protocol). After 21 days, cells were incubated with 0.6M HCl for 24 hours before calcium per well was measured by complexing with cresopthalein and measuring absorbance at 577nm. C: Absorbance at 540nm for cells treated with Sirius red/fast green dye to measure collagen accumulation.
# hMSCs [3] = assay: Adipocyte differentiation, fat accumulation by oil red O staining; details: for Absorbance of eluate at 500nm, Adipocyte-differentiated cells: 18 days; for Absorbance of eluate at 500nm, Control cells: no differentiation protocol
# Protocol: as §1
# Cells were inoculated at a density of 2x10^5 cells/well into 6 well plates and the adipocyte differentiation protocol followed (refer to Experimental Procedures for full protocol). After 18 days, medium was removed from wells and cells stained with oil red O. The dye was eluted from the cells and the absorbance of the eluate read at 500 nm. B: Absorbance at 577nm for cells treated with cresopthalein to measure Ca2+ accumulation.
# hMSCs [4] = assay: Glycolytic rate in 24-well plates (3H2O production from 5-3H-glucose); details: p5 vs p2
# Protocol: (§2) Cryopreserved cells were thawed, washed with growth medium and seeded at a density of 1 X 10^6 cells per 225cm2 with Dulbecco's Modified Eagle's medium (DMEM) containing 2mM ultra-glutamine, 1g/l glucose, 50µg/ml gentamycin and 10% FBS. Where 3-hydroxybutyrate (3-HB) was included in the growth medium, the concentration was 5mM throughout. Cells were passaged at about 80% confluence. Cells for measurements of glycolysis or oxidation were seeded into 24-well plates at a density of 1 x 10^4 cells per well and used at about 90% confluence. Cells were maintained in either normoxic culture with 20% O2 tension or hypoxic culture with 5% O2 tension in an oxygen-tension controlled incubator. Previous workers have identified 5% O2 as being a physiologically significant level of O2 with respect to in vivo conditions for hMSCs, representing hypoxia (Pattappa et al., 2011).
# Glycolysis was measured as the production of ^3H2O from 5-^3H-glucose, which occurs during the step catalysed by enolase. Cells were incubated with 5.5mM glucose containing 17 MBq/mmol 5-^3H-glucose in DMEM without pyruvate, glutamine or glucose for 90 minutes in a total volume of 0.5mls. […] Washing with 2 column volumes of water eluted the ^3H2O which was counted for radioactivity (Tri-Carb 2800TR Liquid Scintillation Analyser).
# hMSCs [5] = assay: Substrate oxidation in 24-well plates (14CO2 production from 14C-labelled substrates); details: for increase in substrate-oxidation rate between passage 2 and passage 5: normoxic-cultured cells (20% O2); for oxidation rate relative to glucose (fold higher): normoxic-cultured cells, 10mM acetoacetate vs 5.5mM glucose
# Protocol: as §2
# Cells were incubated for 90 minutes in the presence of a single radiolabelled substrate (with addition of unlabelled substrates where indicated) in DMEM (containing no pyruvate, glucose or glutamine) in a total volume of 0.5 mls. The concentrations of single substrates were: 5.5mM glucose (considered similar to median human blood glucose concentration); 2mM pyruvate (considered higher than endogenous pyruvate concentration from glucose metabolism and sufficient to stimulate activity of pyruvate dehydrogenase plus pyruvate carboxylase); 1mM glutamine (considered similar to human blood glutamine concentrations); 10mM acetoacetate (considered similar to intracellular acetoacetate concentrations produced from maximal blood ketone body concentrations). In addition, substrates incorporated radiolabels as follows: glucose: ^21 MBq/mmol D-U-^14C-glucose; pyruvate: 0.35MBq/mmol 1-^14C-pyruvate; acetoacetate: 0.185MBq/mmol 3-^14C-acetoacetate; glutamine: 1.2 MBq/mmol U-^14C-glutamine. Evolved ^14CO2 was trapped and measured by the method of Collins et al. (1998), except that, after addition of perchloric acid to the wells, plates were gently agitated for 60 minutes to release dissolved ^14CO2. Filter papers containing trapped ^14CO2 were counted in Ecoscint using a Tri-Carb 2800TR Liquid Scintillation Analyser. […] Rates of ATP-production from individual substrates were calculated on the basis of mol/mol production as follows: glucose: 31; glutamine: 20; pyruvate: 12.5; acetoacetate: 20. For calculations of ATP-production from acetoacetate plus pyruvate, separate incubations were performed with ^14C-acetoacetate in the presence of unlabelled pyruvate and with ^14C-pyruvate in the presence of unlabelled acetoacetate. Rates of ATP-production from the labelled substrate were calculated for each condition and the results summed.
# hMSCs [6] = assay: cells; details: for ROS generated per mole of substrate oxidised: 90 minutes incubation with 5.5mM glucose or 10mM acetoacetate, normoxic-cultured cells, passage 5; for fold induction at 20 µM: Homo sapiens, 24 h, 24h pre-incubation with 20µM genipin, passage 5, normoxic
# Protocol: Cells were incubated under appropriate conditions in 24-well plates in a total volume of 0.2ml for 90 minutes. At 90 minutes, ROS were assayed using an Oxiselect Amplex Red kit from Cell Biolabs, Inc., according to the manufacturer's instructions. Where genipin was used, cells were pre-incubated for 24 hours with 20 µM genipin.
# hMSCs [7] = assay: Calculated rates of ATP-production from substrate oxidation and glycolysis; details: full oxidation assumed; passage 2, normoxic-cultured cells
# Protocol: Cells were incubated for 90 minutes in the presence of a single radiolabelled substrate (with addition of unlabelled substrates where indicated) in DMEM (containing no pyruvate, glucose or glutamine) in a total volume of 0.5 mls. […] Evolved ^14CO2 was trapped and measured by the method of Collins et al. (1998), except that, after addition of perchloric acid to the wells, plates were gently agitated for 60 minutes to release dissolved ^14CO2. Filter papers containing trapped ^14CO2 were counted in Ecoscint using a Tri-Carb 2800TR Liquid Scintillation Analyser. […] Rates of ATP-production from individual substrates were calculated on the basis of mol/mol production as follows: glucose: 31; glutamine: 20; pyruvate: 12.5; acetoacetate: 20. […] Rates of ATP-production from the labelled substrate were calculated for each condition and the results summed.
# ATP-yields were calculated from the following values, as follows: from glycolysis of glucose, it is assumed that 2 moles ATP will be produced per mole glucose glycolysed. […]
# [8] = normoxic cells cultured with 5mM 3-HB from passages 1 to 5
smiles,measurement,setting,value
"CC(O)CC(=O)O (stereo not drawn) [3-HB, 3-hydroxybutyrate]",activation at 5000 µM,hMSCs [1]; Hypoxia + 5mM 3-HB,45%
same,activation at 5000 µM,hMSCs [1]; Normoxia + 5mM 3-HB,178%
same,"Absorbance at 540nm, Chondrocyte-differentiated cells",hMSCs [1]; Hypoxia + 5mM 3-HB,** 0.806 ± 0.024
same,"Absorbance at 540nm, Control cells",hMSCs [1]; Hypoxia + 5mM 3-HB,0.556 ± 0.008
same,"Absorbance at 540nm, Chondrocyte-differentiated cells",hMSCs [1]; Normoxia + 5mM 3-HB,*** 0.887 ± 0.020
same,"Absorbance at 540nm, Control cells",hMSCs [1]; Normoxia + 5mM 3-HB,0.319 ± 0.004
same,% increase over control (osteocyte differentiation),hMSCs [2]; Hypoxia + 5mM 3-HB,36%
same,"Absorbance at 577nm, Osteocyte-differentiated cells",hMSCs [2]; Hypoxia + 5mM 3-HB,*** 0.495 ± 0.007
same,"Absorbance at 577nm, Control cells",hMSCs [2]; Hypoxia + 5mM 3-HB,0.363 ± 0.003
same,% increase over control (osteocyte differentiation),hMSCs [2]; Normoxia + 5mM 3-HB,21%
same,"Absorbance at 577nm, Osteocyte-differentiated cells",hMSCs [2]; Normoxia + 5mM 3-HB,*** 0.375 ± 0.003
same,"Absorbance at 577nm, Control cells",hMSCs [2]; Normoxia + 5mM 3-HB,0.310 ± 0.001
same,% increase over control (adipocyte differentiation),hMSCs [3]; Hypoxia + 5mM 3-HB,27%
same,"Absorbance of eluate at 500nm, Adipocyte-differentiated cells",hMSCs [3]; Hypoxia + 5mM 3-HB,*** 0.727 ± 0.001
same,"Absorbance of eluate at 500nm, Control cells",hMSCs [3]; Hypoxia + 5mM 3-HB,0.570 ± 0.001
same,% increase over control (adipocyte differentiation),hMSCs [3]; Normoxia + 5mM 3-HB,34%
same,"Absorbance of eluate at 500nm, Adipocyte-differentiated cells",hMSCs [3]; Normoxia + 5mM 3-HB,*** 0.698 ±0.005
same,"Absorbance of eluate at 500nm, Control cells",hMSCs [3]; Normoxia + 5mM 3-HB,0.520 ± 0.006
same,decrease in glycolytic rates by passage 5,hMSCs [4]; cells cultured under hypoxia with 5mM 3-HB,1.5 fold
same,increase in glycolytic rate at p5,hMSCs [4]; normoxic cells cultured with 5mM 3-HB,1.4 fold
same,increase in glucose oxidation rate at passage 5,hMSCs [5]; [8],7.5 fold
same,reduction of acetoacetate oxidation rate at passage 5,hMSCs [5]; [8],1.3 fold
CC(=O)CC(=O)O [acetoacetate],increase in substrate-oxidation rate between passage 2 and passage 5,hMSCs [5],3.5 fold
same,oxidation rate relative to glucose (fold higher),hMSCs [5]; passage 2,25 fold
same,oxidation rate relative to glucose (fold higher),hMSCs [5]; passage 5,42 fold
same,ROS generated per mole of substrate oxidised,hMSCs [6],0.0017 moles of ROS
same,"difference in ROS generation per mole substrate oxidised, compared with glucose",hMSCs [6]; acetoacetate lower than glucose,4.5 fold
COC(=O)C1=CO[C@@H](O)[C@@H]2C(CO)=CC[C@H]12 [genipin],fold induction at 20 µM,"hMSCs [6]; read-out: increase in ROS-production, acetoacetate substrate (10mM)",2
same,fold induction at 20 µM,"hMSCs [6]; read-out: increase in ROS-production, glucose substrate (5.5mM)",1.6
"OC[C@H]1OC(O)[C@H](O)[C@@H](O)[C@@H]1O (stereo partly drawn) [glucose, reference compound]",ATP produced compared with acetoacetate alone (times less),hMSCs [7],16 times less
same,reduction of rate of acetoacetate-oxidation by added substrate,"hMSCs [5]; 10mM acetoacetate plus unlabelled 5.5mM glucose, passage 2, normoxic-cultured cells",more than 3 fold
same,increase in substrate-oxidation rate between passage 2 and passage 5,hMSCs [5],2 fold
same,ROS generated per mole of substrate oxidised,hMSCs [6],0.076 moles of ROS
"NC(=O)CC[C@H](N)C(=O)O [glutamine, reference compound]",ATP produced compared with acetoacetate alone (times less),hMSCs [7],33 times less
same,increase in substrate-oxidation rate between passage 2 and passage 5,hMSCs [5],not significantly different
"O=C(O)CC(O)C(=O)O (stereo not drawn) [malate, reference compound]",effect of added substrate on rates of pyruvate oxidation,hMSCs [5]; data not shown,no significant effect
